From patent publication US20090186896A1, “PDE Inhibitors and Combinations Thereof for the Treatment of Urological Disorders” (Bayer HealthCare AG, priority 2005, published 2009)
Read-outs that look alike come from different tables or passages of the source. Each block holds one compound with its values, some of them ahead of it.

Legend:
rabbit bladder strips = assay: Organ bath, isolated rabbit bladder strips pre-contracted with K+ (50 mmol/l); assay type: cell-based; details: for % contraction of isolated rabbit bladder strips: percentage of the pre-contraction, mean ± SEM, n = 9; for IC50: Oryctolagus cuniculus, rabbit bladder strips
Experimental: White New Zealand rabbits were anesthetized using thiopental. The urinary bladder was removed and placed in ice-cold Krebs-Henseleit buffer of following composition (in mmol/l): NaCl 112, KCl 5.9, CaCl2 2.0 MgCl2 1.2, NaH2PO4 1.2, NaHCO3 25, and glucose 11.5. Equally sized longitudinal strips of approximately 2 mm×10 mm were cut from the bladder body.
Recording of mechanical activity: The preparations were transferred to 20 ml organ baths containing Krebs-Henseleit solution equilibrated with 95% O2, 5% CO2 at 37° C. The strips were mounted between two hooks by means of two clips. For recording of isometric tension one of the hooks was connected to a force transducer which was in turn linked to an amplifier and chart recorder. The other hook was attached to a movable unit, permitting precise adjustment of preload tension. All tissues were then given a 60 min equilibration period during which they were washed and the resting tension was adjusted to 1 g every 20 min.
After the equilibration period, each experiment was started by exposing the preparation to K^+ (50 mmol/l) Krebs-Henseleit solution. The procedure was repeated 3 times and the tissues were washed at least tree times between each contraction.
The bladder strips were than pre-contracted using K^+ (50 mmol/l) Krebs-Henseleit solution. When the contraction was stabilized, an accumulative dose response curve of the compound tested was constructed. The stabilized contraction induced by K^+ (50 mmol/l) Krebs-Henseleit solution was defined as 100% tension. The relaxation was expressed as percentage tension.
Effects of PDE5 and PDE4 inhibitors on isolated rabbit bladder strips: The effects of the PDE5 inhibitor vardenafil and the PDE4 inhibitor Roflumilast on the relaxation the bladder smooth muscle was tested in the organ bath using rabbit bladder strips. Both compounds were tested in the concentration from 10^−9 mol/l to 10^−5 mol/l (FIG. 4, Tab. 2). […] (Table 2)

human prostate tissue = details: in vitro; Ückert 2001; cited from earlier work
[1] = tested on: bladder of female Guinea Pigs; details: Gillespie 2004; cited from earlier work
rat bladder strips = assay: Organ bath, isolated rat bladder strips pre-contracted with K+ (50 mmol/l); assay type: cell-based; details: for Bladder (% contraction): percentage of the pre-contraction, mean ± SEM, n = 9
Source text: Tissue preparation: Male Wistar rats (200-300 g) were euthanized using carbon dioxide. The tissues were removed and placed in ice-cold Krebs-Henseleit buffer of following composition (in mmol/l): NaCl 112, KCl 5.9, CaCl2 2.0 MgCl2 1.2, NaH2PO4 1.2, NaHCO3 25, glucose 11.5. Four equally sized longitudinal strips of approximately 2 mm×10 mm were cut from the bladder body. Prostate strips were obtained by cutting transversally through the lobes of the prostate gland parallel to the urethra. One ring per animal was dissected from the proximal part of the urethra. Recording of mechanical activity: The preparations were transferred to 20 ml organ baths containing Krebs-Henseleit solution equilibrated with 95% O2, 5% CO2 at 37° C. The strips were mounted between two hooks by means of two clips. For recording of isometric tension one of the hooks was connected to a force transducer which was in turn linked to an amplifier and chart recorder. The other hook was attached to a movable unit, permitting precise adjustment of preload tension. All tissues were then given a 60 min equilibration period during which they were washed and the resting tension was adjusted to 1 g every 20 min. After the equilibration period, each experiment was started by exposing the preparation to K^+ (50 mmol/l) Krebs-Henseleit solution. The procedure was repeated 3 times and the tissues were washed at least tree times between each contraction. The bladder strips were than pre-contracted using K^+ (50 mmol/l) Krebs-Henseleit solution. When the contraction was stabilized, an accumulative dose response curve of the compound tested was constructed. The stabilized contraction induced by K^+ (50 mmol/l) Krebs-Henseleit solution was defined as 100% tension. The relaxation was expressed as percentage tension. Organ bath assay: effects of Vardenafil on isolated rat urogenital organs: The effects of the PDE5 inhibitor Vardenafil on the relaxation of smooth muscles were tested in the organ bath system. The compound was applied in the concentration range from 10^−8 mol/l to 10^−5 mol/l (FIG. 3, Table 1).

rat urethral rings = assay: Organ bath, isolated rat urethral rings pre-contracted with phenylephrine; assay type: cell-based; details: for Urethra (% contraction): percentage of the pre-contraction, mean ± SEM, n = 9
Source text: (§1) Tissue preparation: Male Wistar rats (200-300 g) were euthanized using carbon dioxide. The tissues were removed and placed in ice-cold Krebs-Henseleit buffer of following composition (in mmol/l): NaCl 112, KCl 5.9, CaCl2 2.0 MgCl2 1.2, NaH2PO4 1.2, NaHCO3 25, glucose 11.5. Four equally sized longitudinal strips of approximately 2 mm×10 mm were cut from the bladder body. Prostate strips were obtained by cutting transversally through the lobes of the prostate gland parallel to the urethra. One ring per animal was dissected from the proximal part of the urethra. Recording of mechanical activity: The preparations were transferred to 20 ml organ baths containing Krebs-Henseleit solution equilibrated with 95% O2, 5% CO2 at 37° C. The strips were mounted between two hooks by means of two clips. For recording of isometric tension one of the hooks was connected to a force transducer which was in turn linked to an amplifier and chart recorder. The other hook was attached to a movable unit, permitting precise adjustment of preload tension. All tissues were then given a 60 min equilibration period during which they were washed and the resting tension was adjusted to 1 g every 20 min. After the equilibration period, each experiment was started by exposing the preparation to K^+ (50 mmol/l) Krebs-Henseleit solution. The procedure was repeated 3 times and the tissues were washed at least tree times between each contraction. Prostatic strips and urethral rings were pre-contracted using 10^−6 mol/l phenylephrine. The effects of the compounds on the prostate tissue were tested in a non-cumulative manner with washing steps between each concentration. Organ bath assay: effects of Vardenafil on isolated rat urogenital organs: The effects of the PDE5 inhibitor Vardenafil on the relaxation of smooth muscles were tested in the organ bath system. The compound was applied in the concentration range from 10^−8 mol/l to 10^−5 mol/l (FIG. 3, Table 1).

rat prostate strips = assay: Organ bath, isolated rat prostate strips pre-contracted with phenylephrine; assay type: cell-based; details: for Prostate (% contraction): percentage of the pre-contraction, mean ± SEM, n = 9
Source text: as §1

BOO rats = assay: Conscious cystometry in rat bladder outlet obstruction (BOO) model, non voiding contractions; assay type: in vivo; details: i.v.
Experimental: All animal experiments were performed due to the “German Law for the Protection of Laboratory animals” and were conducted due to the approved guidelines of the permission “Tierversuchsvorhaben No 401/A01 M010/M011 vom Sep. 7, 2004”. Experiments were performed with female Sprague Dawley Rats with a body weight between 200-250 g.
Bladder Outlet Obstruction: For the bladder outlet obstruction, rats were anesthetized with a mixture of 1.5-2% isoflurane in a carrier of 66% N2O 33% O2. The abdomen was shaved, opened by a lower midline incision, bladder and urethra were identified and the urethravesical junction was exposed. A 1.0 mm metal rod was placed along the proximal urethra and a 6-0 nylon ligature was tied tightly around the urethra and the rod. The rod was consecutively removed and the abdomen was closed by a silk ligature and cleaned up by 70% ethanol. […]
Conscious cystometry: For cystometry the animals were shortly anaesthetized by isoflurane as described above, placed in a Ballman's cage and fixed. […] The efficacy of treatment was quantified via calculation of the non voiding contractions per micturition interval before and after treatment. […]
Statistical analysis of results: Data are expressed as means±standard error of the means (SEM), and n indicating the number of experiments. The significance of differences between means was determined by paired and unpaired Student's t-test. […]

CYP-treated rats = assay: Anaesthetized cystometry, micturition interval in CYP-treated rats (overactive bladder); assay type: in vivo, rat; details: i.v.
Experimental: All animal experiments were performed due to the “German Law for the Protection of Laboratory animals” and were conducted due to the approved guidelines of the permission “Tierversuchsvorhaben No 401/A01 M010/M011 vom Sep. 7, 2004”. Experiments were performed with female Sprague Dawley Rats with a body weight between 200-250 g. Anaesthetized cystometry: For cystometry female SD rats were anaesthetized with urethane (1.2 g/kg, ip). After laparotomy, the bladder was exposed and both ureters were ligated and cut. A polyethylene cannula (PE50) was implanted into the bladder dome, and the abdomen was closed. The bladder catheter was connected to the t-shaped tube to connect a infusion pump (Perfusor® compact; Braun Melsungen) for continuous infusion of saline solution and to connect a pressure transducer (Combitrans; Braun Melsungen) for measurement of intrabladder pressure. The intrabladder pressure signals were registered with the Powerlab System (MLT0698, ADInstrument). […] The effect of treatments was calculated on the micturition interval (corresponding to bladder capacity). […]
Statistical analysis of results: Data are expressed as means i standard error of the means (SEM), and n indicating the number of experiments. The significance of differences between means was determined by paired and unpaired Student's t-test. […]

[2] = read-out: IC50, relaxation of bladder strips

IC50 (rabbit bladder strips; [2]): 260 nM
IC50 (rabbit bladder strips; read-out: IC50, relaxing effects on rabbit bladder strips): 260 nM
Compound: O=C(Nc1c(Cl)cncc1Cl)c1ccc(OC(F)F)c(OCC2CC2)c1 [Roflumilast]
% contraction of isolated rabbit bladder strips (rabbit bladder strips; 0.001 μmol/l): 100.8 ± 0.6%
% contraction of isolated rabbit bladder strips (rabbit bladder strips; 0.01 μmol/l): 90.1 ± 1.7%
% contraction of isolated rabbit bladder strips (rabbit bladder strips; 0.1 μmol/l): 75.1 ± 2.1%
% contraction of isolated rabbit bladder strips (rabbit bladder strips; 1 μmol/l): 55.8 ± 2.5%
% contraction of isolated rabbit bladder strips (rabbit bladder strips; 10 μmol/l): 40.9 ± 3.3%

Compound: CCCOc1ccccc1-c1nc2nn[nH]c2c(=O)[nH]1 [Zaprinast]
relaxation of pre-contracted human prostate tissue (human prostate tissue): able to relax
relaxation of bladder [1]: ineffective

EC50 (rat bladder strips; rat bladder strips, read-out: EC50, relaxation of bladder strips): 5000 nM
EC50 (rat urethral rings; rat urethral rings, read-out: EC50, relaxation of urethral rings): 960 nM
EC50 (rat prostate strips; rat prostate strips, read-out: EC50, relaxation of prostate strips): 1100 nM
IC50 (rabbit bladder strips; [2]): 1700 nM
Compound: CCCc1nc(C)c2c(=O)[nH]c(-c3cc(S(=O)(=O)N4CCN(CC)CC4)ccc3OCC)nn12 [Vardenafil, 2-(2-Ethoxy-5-(4-ethylpiperazin-1-yl-1-sulfonyl)phenyl)-5-methyl-7-propyl-3H-imidazo (5,1-f) (1,2,4)triazin-4-one]
Bladder (% contraction) (rat bladder strips; 0.001 μmol/l): 94.3 ± 0.9%
Bladder (% contraction) (rat bladder strips; 0.01 μmol/l): 91.2 ± 1.3%
Bladder (% contraction) (rat bladder strips; 0.1 μmol/l): 89.9 ± 1.8%
Bladder (% contraction) (rat bladder strips; 1 μmol/l): 77.8 ± 2.1%
Bladder (% contraction) (rat bladder strips; 10 μmol/l): 25.3 ± 3.2%
Urethra (% contraction) (rat urethral rings; 0.001 μmol/l): 88.4 ± 2.4%
Urethra (% contraction) (rat urethral rings; 0.01 μmol/l): 88.5 ± 2.1%
Urethra (% contraction) (rat urethral rings; 0.1 μmol/l): 77.1 ± 3.9%
Urethra (% contraction) (rat urethral rings; 1 μmol/l): 44.9 ± 1.5%
Urethra (% contraction) (rat urethral rings; 10 μmol/l): 3.5 ± 1.7%
Prostate (% contraction) (rat prostate strips; 0.1 μmol/l): 99.2 ± 3.0%
Prostate (% contraction) (rat prostate strips; 1 μmol/l): 76.0 ± 2.3%
Prostate (% contraction) (rat prostate strips; 10 μmol/l): 25.3 ± 3.2%
% contraction of isolated rabbit bladder strips (rabbit bladder strips; 0.001 μmol/l): 100.9 ± 1.0%
% contraction of isolated rabbit bladder strips (rabbit bladder strips; 0.01 μmol/l): 99.9 ± 0.9%
% contraction of isolated rabbit bladder strips (rabbit bladder strips; 0.1 μmol/l): 95.7 ± 1.7%
% contraction of isolated rabbit bladder strips (rabbit bladder strips; 1 μmol/l): 76.3 ± 3.7%
% contraction of isolated rabbit bladder strips (rabbit bladder strips; 10 μmol/l): 9.6 ± 12.6%
MED, significant reduction of non voiding contractions (NVC) (BOO rats): 3 mg/kg
MED, significant increase of micturition interval (CYP-treated rats): 3 mg/kg

Compound: CC(C)Cn1c(=O)n(C)c(=O)c2[nH]cnc21 [IBMX]
relaxation of bladder [1]: could relax
